Measured values taken from patent US9062321B2 (priority 2004, dated 2015).

Columns and labels:
BuChE [1] = target: T1, BuChE (Homo sapiens, UniProt P06276); assay: Sensitivity of BuChE to cholinesterase inhibitors (background); type: biochemical; details: ratio of Ki BuChE to Ki AChE
BuChE [2] = target: T1, BuChE; details: in words; cited from earlier work

T1 sequence (P06276 29-602): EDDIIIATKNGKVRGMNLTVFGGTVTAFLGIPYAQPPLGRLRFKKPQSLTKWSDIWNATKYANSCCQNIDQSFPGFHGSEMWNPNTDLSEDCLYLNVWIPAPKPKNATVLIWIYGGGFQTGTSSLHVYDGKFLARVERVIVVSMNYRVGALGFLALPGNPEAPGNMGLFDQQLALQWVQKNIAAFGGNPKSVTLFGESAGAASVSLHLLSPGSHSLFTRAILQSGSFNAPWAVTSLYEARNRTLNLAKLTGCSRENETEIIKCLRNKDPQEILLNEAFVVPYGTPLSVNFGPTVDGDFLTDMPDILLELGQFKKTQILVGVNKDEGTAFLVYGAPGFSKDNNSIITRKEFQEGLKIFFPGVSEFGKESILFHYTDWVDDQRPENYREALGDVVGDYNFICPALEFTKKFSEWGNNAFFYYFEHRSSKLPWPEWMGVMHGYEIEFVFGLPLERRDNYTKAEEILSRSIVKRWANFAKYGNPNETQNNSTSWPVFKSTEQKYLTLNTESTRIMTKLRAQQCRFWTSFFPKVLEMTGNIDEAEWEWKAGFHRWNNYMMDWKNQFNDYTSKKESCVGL

| SMILES | difference in sensitivity of BuChE compared to AChE (BuChE [1]) | sensitivity of BuChE to the inhibitor compared with AChE (BuChE [2]) |
| --- | --- | --- |
| C=CC[N+](C)(C)c1ccc(CCC(=O)CCc2ccc([N+](C)(C)CC=C)cc2)cc1 [BW284c51, 1,5-bis(4-allyldimethylammoniumphenyl)pentan-3-one dibromide] | 1400 fold | – |
| CC(C)NP(=O)(NC(C)C)OP(=O)(NC(C)C)NC(C)C [Iso-OMPA, tetraisopropyl pyrophosphoramide] | – | much more sensitive |
